The record followed here is patent US6846825B1, “Antibacterial agents” (British Biotech Pharmaceuticals Limited, priority 1999, dated 2005).

Common to all, as to format: cell-based
Test [1] deals with Staphylococcus capitis (American Type Culture Collection number 35661). The experiment in a line: Minimal inhibitory concentration (MIC), two fold serial dilutions in 2×YT broth. As to conditions: S. capitis ATCC 35661, 2×YT broth, 37° C., 18 hours, lowest concentration that inhibited visible growth. As to the method: (§1) Minimal inhibitory concentrations (MIC) of compounds of the invention against E. coli strains DH5α (Genotype; F-ω80dlacZΔM15Δ(lacZYA-argF)U169 deoR recA1 endA1 hsdR17(rk^−,mk^+)phoA supE44λ^−thi-1 gyrA96 relA1) obtained from Gibco BRL Life Technologies, or Staphylococcus capitis (American Type Culture Collection number 35661) were determined as follows. Stock solutions of each test compound were prepared by dissolution of the compound in dimethylsulfoxide at 10 mM. For the determination of the minimal inhibitory concentration, two fold serial dilutions were prepared in 2×YT broth (typtone 16 g/1, yeast extract 10 g/1, sodium chloride 5 g/1 obtained from BIO 101 Inc, 1070 Joshua Way, Vista, Calif. 92083, USA) to yield 0.05 ml compound-containing medium per well. Inoculate were prepared from cultures grown overnight in 2×YT broth at 37° C. Cell densities were adjusted to absorbance at 660 nm (A660)=0.1; the optical density-standardised preparations were diluted 1:1000 in 2×YT broth; and each well inoculated with 0.05 ml of the diluted bacteria. Microtiter plates were incubated at 37° C. for 18 hours in a humidified incubator. The MIC (μM) was recorded as the lowest drug concentration that inhibited visible growth.

For test [2], the system named is E. coli strains DH5α. Described as above. As to conditions: 37° C., 18 hours, lowest concentration that inhibited visible growth. Here is the method:
as §1

The subject of test [3] is Haemophilus Influenza. Nature of the test: MIC against respiratory tract pathogens, Microdilution Broth Method (NCCLS). Here is the method: (§2) In another experiment, the MICs of the compound of Example 91 were determined against certain respiratory tract pathogens, using the Microdilution Broth Method according to the approved standard of the National Committee for Clinical Laboratory Standards procedure (Methods for dilution antimicrobial susceptibility tests for bacteria that grow aerobically—Fourth Edition ISBN 1-56238-309-4).

Test [4] relates to Moraxella catarrhalis. The description is as above. Here is the method:
as §2

The subject of test [5] is Streptococcus pneumoniae. The test is described as above. Here is the method: as §2
The mark [6] stands for this setting: Staphylococcus capitis, ATCC35661.

≈ marks a conversion by molar mass, not a printed value. Where two headings read alike, the source gives them in different places.

Compound `CCCC[C@H](CN(O)C=O)C(=O)N[C@H](C(=O)N1CCN(C(=O)c2ccc(-c3ccccc3)cc2)CC1)C(C)(C)C` [Example 79, 2R-[(Formyl-hydroxy-amino)-methyl]-hexanoic acid {1S-[4-(biphenyl-4-carbonyl)-piperazine-1-carbonyl]-2,2-dimethyl-propyl}-amide] returned an MIC in test [1] of 6.25 µM (≈ 3.44 µg/mL).

For `CCCC[C@H](CN(O)C=O)C(=O)N[C@H](C(=O)N1CCN(S(=O)(=O)c2ccc(-c3ccccc3)cc2)CC1)C(C)(C)C` [Example 78, 2R-[(Formyl-hydroxy-amino)-methyl]-hexanoic acid {1S-[4-(biphenyl-4-sulfonyl)-piperazine-1-carbonyl]-2,2-dimethyl-propyl}-amide], in test [1], the MIC was 200 µM (≈ 117 µg/mL).

Regarding `CC(C)(C)C(NC(=O)[C@H](CC1CCCC1)CN(O)C=O)C(=O)N1CCC(Oc2ccc(C(=O)N3CCC(O)CC3)cc2)CC1` (stereo partly drawn) [Example 91, 2R-Cyclopentylmethyl-3-(formyl-hydroxy-amino)-N-(1S-{4-[4-(4-hydroxy-piperidine-1-carbonyl)-phenoxy]-piperidine-1-carbonyl}-2,2-dimethyl-propyl)-propionamide], the MIC in test [2] (Escherichia coli) was found to be 200 µM (≈ 123 µg/mL); in test [1] (setting [6]) it was 25 µM (≈ 15.4 µg/mL); in test [3] (Haemophilus Influenza 1390) it was 1 µg/mL (≈ 1.63 µM); in test [3] (Haemophilus Influenza 1414), 4 µg/mL (≈ 6.51 µM); in test [4] (Moraxella catarrhalis 2412) it was 0.5 µg/mL (≈ 0.813 µM); in test [4] (Moraxella catarrhalis 2413), 0.25 µg/mL (≈ 0.407 µM). Also, the “MIC” value in test [5] (Streptococcus pneumoniae (PIP) 2391) came out at 0.25 µg/mL (≈ 0.407 µM); in test [5] (Streptococcus pneumoniae (PRP) 2390), 0.25 µg/mL (≈ 0.407 µM); in test [5] (Streptococcus pneumoniae (PSP) 2403, read-out: MIC) it was 0.25 µg/mL (≈ 0.407 µM).

Consider `CC(C)(C)[C@H](NC(=O)[C@H](CC1CCCC1)CN(O)C=O)C(=O)N1CCN(Cc2ccc3ccccc3c2)CC1` [Example 54, 2R-Cyclopentylmethyl-N-[2,2-dimethyl-1S-(4-naphthalen-2-ylmethyl-piperazine-1-carbonyl)-propyl]-3-(formyl-hydroxy-amino)-propionamid], for which the MIC in test [2] was determined as 200 µM (≈ 107 µg/mL); in test [1] it was 3.1 µM (≈ 1.66 µg/mL).

For the compound `CCCC[C@H](CN(O)C=O)C(=O)N[C@H](C(=O)N1CCN(C(=O)c2sc(C)nc2C)CC1)C(C)(C)C` [Example 74, 2R-[(Formyl-hydroxy-amino)-methyl]-hexanoic acid {1S-[4-(2,4-dimethyl-thiazole-5-carbonyl)-piperazine-1-carbonyl]-2,2-dimethyl-propyl}-amide], the MIC in test [2] stood at 200 µM (≈ 102 µg/mL); in test [1], 25 µM (≈ 12.7 µg/mL).

As to `CCCC[C@H](CN(O)C=O)C(=O)N[C@H](C(=O)N1CCN(C(=O)c2ccc3c(c2)OCO3)CC1)C(C)(C)C` [Example 55, 2R-[(Formyl-hydroxy-amino)-methyl]-hexanoic acid {1S-[4-(3a,7a-dihydro-benzo[1,3]dioxole-5-carbonyl)-piperazine-1-carbonyl]-2,2-dimethyl-propyl}-amide], the MIC was 200 µM (≈ 104 µg/mL) in test [2] (Escherichia coli) and 6.2 µM (≈ 3.22 µg/mL) in test [1] (setting [6]).

With `CC(C)(C)C(NC(=O)[C@H](CC1CCCC1)CN(O)C=O)C(=O)N1CCC(Oc2ccc(C(=O)N3CCOCC3)cc2)CC1` (stereo partly drawn) [Example 89, 2R-Cyclopentylmethyl-N-(2,2-dimethyl-1S-{4-{4-(morpholine-4-carbonyl)-phenoxy}-piperidine-1-carbonyl}-propyl)-3-(formyl-hydroxy-amino)-propionamide], the MIC in test [2] (Escherichia coli) came to 200 µM (≈ 120 µg/mL); in test [1] (setting [6]) it was 25 µM (≈ 15 µg/mL).

For `CC(C)(C)[C@H](NC(=O)[C@H](CC1CCCC1)CN(O)C=O)C(=O)N1CCN(Cc2ccc(-c3ccccc3)cc2)CC1` [Example 52, N-[1S-(4-Biphenyl-4-ylmethyl-piperazine-1-carbonyl)-2,2-dimethyl-propyl]-2R-cyclopentylmethyl-3-(formyl-hydroxy-amino)-propionamide], the MIC in test [2] is on record as 200 µM (≈ 113 µg/mL); in test [1] it was 6.2 µM (≈ 3.49 µg/mL).

With `CCCC[C@H](CN(O)C=O)C(=O)N1CCN(CCOCCO)CC1` [Example 29, N-Hydroxy-N-(2R-{4-[2-(2-hydroxy-ethoxy)-ethyl]-piperazine-1-carbonyl}-hexyl)-formamide], in test [2] (Escherichia coli), the MIC was 100 µM (≈ 34.5 µg/mL).

With `CN(C)C(=O)c1ccc(OC2CCN(C(=O)[C@@H](NC(=O)[C@H](CC3CCCC3)CN(O)C=O)C(C)(C)C)CC2)cc1` [Example 88, 4-(1S-{2-[2R-Cyclopentylmethyl-3-(formyl-hydroxy-amino)-propionylamino]-3,3-dimethyl-butyryl}-piperidin-4-yloxy)-N,N-dimethyl-benzamide], the MIC in test [2] (Escherichia coli) amounted to 100 µM (≈ 55.9 µg/mL); in test [1] (setting [6]), 6.2 µM (≈ 3.46 µg/mL).

`CCCC[C@H](CN(O)C=O)C(=O)N1CCC(c2ccccc2)CC1` [Example 24, N-Hydroxy-N-[2R-(4-phenyl-piperidine-1-carbonyl)-hexyl]-formamide]: the MIC in test [1] (setting [6]) is 100 µM (≈ 33.2 µg/mL).

With `CCCC[C@H](CN(O)C=O)C(=O)N[C@H](C(=O)N1CCN(C(=O)c2snnc2C)CC1)C(C)(C)C` [Example 69, 2R-[(Formyl-hydroxy-amino)-methyl]-hexanoic acid {2,2-dimethyl-1S-[4-(4-methyl-[1,2,3]thiadiazole-5-carbonyl)-piperazine-1-carbonyl]-propyl}-amide], the figures for the MIC in test [2] and in test [1] were 200 µM (≈ 99.3 µg/mL) and 25 µM (≈ 12.4 µg/mL), respectively.

For `CC(C)(C)[C@H](NC(=O)[C@H](CC1CCCC1)CN(O)C=O)C(=O)N1CCN(Cc2ccc3c(c2)OCO3)CC1` [Example 57, N-[1S-(4-Benzo[1,3]dioxol-5-ylmethyl-piperazine-1-carbonyl)-2,2-dimethyl-propyl]-2R-cyclopentylmethyl-3-(formyl-hydroxy-amino)-propionamide], the MIC in test [2] (Escherichia coli) stood at 100 µM (≈ 53.1 µg/mL); in test [1] (setting [6]), 6.2 µM (≈ 3.29 µg/mL).

For the compound `CCCC[C@H](CN(O)C=O)C(=O)N[C@H](C(=O)N1CCN(Cc2ccccc2C#N)CC1)C(C)(C)C` [Example 44, 2R-[(Formyl-hydroxy-amino)-methyl]-hexanoic acid {1S-[4-(2-cyano-benzyl)-piperazine-1-carbonyl]-2,2-dimethyl-propyl}-amide], the figures for the MIC in test [2] and in test [1] were 200 µM (≈ 97.1 µg/mL) and 12 µM (≈ 5.83 µg/mL), respectively.

For the compound `CC(C)(C)[C@H](NC(=O)[C@H](CC1CCCC1)CN(O)C=O)C(=O)N1CCN(Cc2ccccc2C#N)CC1` [Example 50, N-{1S-[4-(2-Cyano-benzyl)-piperazine-1-carbonyl]-2,2-dimethyl-propyl}-2R-cyclopentylmethyl-3-(formyl-hydroxy-amino)-propionamide], the MIC was 200 µM (≈ 102 µg/mL) in test [2] and 6.2 µM (≈ 3.17 µg/mL) in test [1].

On to `CCCC[C@H](CN(O)C=O)C(=O)N[C@H](C(=O)N1CCN(Cc2cccnc2)CC1)C(C)(C)C` [Example 56, 2R-[(Formyl-hydroxy-amino)methyl]-hexanoic acid [2,2-dimethyl-1S-(4-pyridin-3-ylmethyl-piperazine-1-carbonyl)-propyl]-amide], for which the MIC in test [2] (Escherichia coli) was determined as 50 µM (≈ 23.1 µg/mL); in test [1] (setting [6]), 25 µM (≈ 11.5 µg/mL).
